Counter-ions that a name gives are not always drawn.
Columns and labels:
[1] = collision cross section (TIMS, N2 drift gas) of the primary ion; higher = larger gas-phase ion size
[2] = reversed-phase LC retention time (C18, 15 min MeOH gradient); higher = more hydrophobic / later elution
[3] = ionization mode: ESI-, ion species: [M-H]-
[4] = ionization mode: ESI+, ion species: [M+H]+
[5] = ionization mode: ESI+, ion species: [M]+

| Structure (SMILES) | collision cross section [1, 3] | reversed-phase LC retention time [2, 3] | collision cross section [1, 4] | reversed-phase LC retention time [2, 4] | collision cross section [1, 5] | reversed-phase LC retention time [2, 5] |
| --- | --- | --- | --- | --- | --- | --- |
| CCc1cc(Cc2cc(CC)cc(C(C)(C)C)c2O)c(O)c(C(C)(C)C)c1 [2,2'-Methylenebis(4-ethyl-6-t-butylphenol)] | 204.77 Å² | 19.3 min | – | – | – | – |
| CC(C)OC(=O)Nc1cccc(Cl)c1 [Chlorpropham] | 147.2 Å² | 14.7 min | – | – | – | – |
| CC(Oc1ccc(Oc2nc3ccc(Cl)cc3o2)cc1)C(=O)O (stereo not drawn) [Fenoxaprop-P] | 189.16 Å² | 13.9 min | 181.01 Å² | 15.3 min | – | – |
| CC(C)NCC(O)COc1ccc(CC(N)=O)cc1 (stereo not drawn) [Atenolol] | – | – | 157.6 Å² | 6.24 min | – | – |
| O=C(O)C(F)(F)C(F)(F)C(F)(F)OC(F)(F)F [Perfluoro-4-methoxybutanoic acid] | 133.26 Å² | 11.4 min | – | – | – | – |
| O=C(O)Cc1ccccc1Nc1c(Cl)cccc1Cl [Diclofenac] | 161.99 Å² | 13.3 min | 159.21 Å² | 15.3 min | – | – |
| NC12CC3CC(CC(C3)C1)C2 [Amantadine] | – | – | 138.51 Å² | 8.82 min | – | – |
| CNC(=O)/C(=N/OC)c1ccccc1COc1cc(C)ccc1C [Dimoxystrobin] | – | – | 178.04 Å² | 15.3 min | – | – |
| C[N+](C)(C)CC1CO1 (stereo not drawn) [2,3-Epoxypropyltrimethylammonium] | – | – | – | – | 117.85 Å² | 0.95 min |
| COc1ccc2c3c1O[C@H]1C[C@@H](O)C=C[C@@]31CCN(C)C2 [Galantamine] | – | – | 169.25 Å² | 5.92 min | – | – |
| C[C@H]1c2cccc(O)c2C(=O)C2=C(O)[C@]3(O)C(=O)C(C(N)=O)=C(O)[C@@H](N(C)C)[C@@H]3[C@@H](O)[C@@H]21 [Doxycycline] | 197.93 Å² | 10.2 min | – | – | – | – |
| O=S(=O)(O)c1nc2ccccc2s1 [2-Benzothiazolesulfonic acid] | 139.34 Å² | 7.26 min | 141.34 Å² | 7.62 min | – | – |
| CC(C)COP(=O)(OCC(C)C)OCC(C)C [Tri-isobutylphosphate] | – | – | 165.01 Å² | 16.3 min | – | – |
| CC[C@H](C)[C@H]1O[C@]2(C=C[C@@H]1C)C[C@@H]1C[C@@H](C/C=C(\C)[C@@H](O[C@H]3C[C@H](OC)[C@@H](O[C@H]4C[C@H](OC)[C@@H](NC)[C@H](C)O4)[C@H](C)O3)[C@@H](C)/C=C/C=C3\CO[C@@H]4[C@H](O)C(C)=C[C@@H](C(=O)O1)[C@]34O)O2 [Emamectin B1a] | 296.31 Å² | 18.9 min | 283.49 Å² | 17 min | – | – |
| CCCCCCCCCCCCOS(=O)(=O)O [Dodecyl sulfate] | 166.94 Å² | 16.3 min | – | – | – | – |
| Nc1cnn(-c2ccccc2)c(=O)c1Cl [4-Amino-5-chloro-1-phenyl-6-pyridazone] | 141.68 Å² | 9.26 min | 143.41 Å² | 9.16 min | – | – |
| CC(C)NCC(O)COc1ccc(CC(=O)O)cc1 (stereo not drawn) [Metoprolol acid] | – | – | 166.24 Å² | 7.62 min | – | – |
| CO/N=C(/C1=NOCCO1)c1ccccc1Oc1ncnc(Oc2ccccc2Cl)c1F [Fluoxastrobin] | – | – | 205.37 Å² | 14.8 min | – | – |
| CCCCCCCCOc1ccc(C(=O)c2ccccc2)c(O)c1 [2-Hydroxy-4-(octyloxyl)benzophenone] | 193.31 Å² | 19.6 min | 193.92 Å² | 18.9 min | – | – |
| Cn1sc(Cl)cc1=O [Methylchloroisothiazolinone] | – | – | 120.77 Å² | 7.46 min | – | – |

| Structure (SMILES) | collision cross section [1, 3] | reversed-phase LC retention time [2, 3] | collision cross section [1, 4] | reversed-phase LC retention time [2, 4] | collision cross section [1, 5] | reversed-phase LC retention time [2, 5] |
| --- | --- | --- | --- | --- | --- | --- |
| C[C@H]1CCCC(=O)CCC/C=C/c2cc(O)cc(O)c2C(=O)O1 [Zearalenone] | 178.16 Å² | 14.4 min | – | – | – | – |
| Cc1ccc(-c2cc(C(F)(F)F)nn2-c2ccc(S(N)(=O)=O)cc2)cc1 [Celecoxib] | 191.15 Å² | 15.5 min | 189.33 Å² | 15.1 min | – | – |
| CC1CCc2cc(F)cc3c(=O)c(C(=O)O)cn1c23 (stereo not drawn) [Flumequine] | 166.14 Å² | 9.17 min | 152.91 Å² | 11.7 min | – | – |
| O=C(Nc1ccccc1-c1ccc(Cl)cc1)c1cccnc1Cl [Boscalid] | – | – | 177.19 Å² | 14.2 min | – | – |
| CN(C)C(=O)Nc1ccc(Cl)c(Cl)c1 [1-(3,4-Dichlorophenyl)-3,3-dimethylurea] | 146.03 Å² | 13.2 min | 149.81 Å² | 13 min | – | – |
| Cc1c(C=O)c(=O)n(-c2ccccc2)n1C [4-Formyl-antipyrine] | – | – | 144.44 Å² | 7.67 min | – | – |
| CCOc1nc2cccc(C(=O)O)c2n1Cc1ccc(-c2ccccc2-c2nnn[nH]2)cc1 [Candesartan] | 202.36 Å² | 9.52 min | 196.78 Å² | 13.3 min | – | – |
| CCCCCCCCSc1nc(Nc2cc(C(C)(C)C)c(O)c(C(C)(C)C)c2)nc(SCCCCCCCC)n1 | – | – | 263.3 Å² | 21 min | – | – |
| Cc1cccc(C)c1N [2,6-Xylidine] | – | – | 117.81 Å² | 17.9 min | – | – |
| CC(C)Nc1ccc(Nc2ccccc2)cc1 [N-isopropyl-N-phenyl-p-phenylenediamine] | – | – | 171.67 Å² | 8.47 min | – | – |
| Clc1ccc2c(c1)CCc1cccnc1C2=C1CCNCC1 [Desloratadine] | – | – | 176.94 Å² | 11.7 min | – | – |
| CCCCC(=O)O[C@]1(C(=O)CO)[C@@H](C)C[C@H]2[C@@H]3CCC4=CC(=O)C=C[C@]4(C)[C@@]3(F)[C@@H](O)C[C@@]21C [Betamethasone-17-valerate] | 216.5 Å² | 16 min | 216.68 Å² | 15.5 min | – | – |
| C[C@H](CCC(=O)O)[C@H]1CC[C@H]2[C@@H]3[C@H](O)C[C@@H]4C[C@H](O)CC[C@]4(C)[C@H]3CC[C@]12C [Chenodeoxycholic acid] | 209.87 Å² | 15.6 min | – | – | – | – |
| C[P+](c1ccccc1)(c1ccccc1)c1ccccc1 [Methyltriphenylphosphonium] | – | – | – | – | 162.96 Å² | 10.1 min |
| NC(=O)N1c2ccccc2C=Cc2cc(O)ccc21 [2-Hydroxycarbamazepine] | – | – | 155.33 Å² | 10.3 min | – | – |
| O=S(=O)(O)CCC(F)(F)C(F)(F)C(F)(F)C(F)(F)C(F)(F)C(F)(F)F [6:2 fluorotelomer sulfonic acid] | 168.03 Å² | 14.7 min | – | – | – | – |
| Oc1ccc(Cl)cc1Cc1ccccc1 [Chlorophene] | 147.97 Å² | 15.9 min | – | – | – | – |
| CCCC(Cn1cncn1)c1ccc(Cl)cc1Cl (stereo not drawn) [Penconazole] | – | – | 166.33 Å² | 15.5 min | – | – |
| Fc1ccc(C2(Cn3cncn3)OC2c2ccccc2Cl)cc1 (stereo not drawn) [Epoxiconazole] | – | – | 176.09 Å² | 14.9 min | – | – |
| CCN(CC)CC(=O)Nc1c(C)cccc1C [Lidocaine] | – | – | 156.14 Å² | 8.29 min | – | – |

| Structure (SMILES) | collision cross section [1, 3] | reversed-phase LC retention time [2, 3] | collision cross section [1, 4] | reversed-phase LC retention time [2, 4] | collision cross section [1, 5] | reversed-phase LC retention time [2, 5] |
| --- | --- | --- | --- | --- | --- | --- |
| CCCC1COC(Cn2cncn2)(c2ccc(Cl)cc2Cl)O1 (stereo not drawn) [Propiconazole] | – | – | 179.72 Å² | 15.7 min | – | – |
| c1ccc2[nH]c(-c3cscn3)nc2c1 [Thiabendazole] | – | – | 138.79 Å² | 8.08 min | – | – |
| CC(C)(C)c1cc([N+](=O)[O-])cc([N+](=O)[O-])c1O [Dinoterb] | 149.2 Å² | 12.5 min | – | – | – | – |
| O=C1CCCC2C3CC(CN12)C1CCCCN1C3 (stereo not drawn) [Lupanine] | – | – | 154.3 Å² | 5.52 min | – | – |
| Oc1cc(Cl)ccc1Oc1ccc(Cl)cc1 [Diclosan] | 152.57 Å² | 16.2 min | – | – | – | – |
| c1ccc(/N=N/c2ccccc2)cc1 [Azobenzene] | – | – | 138.4 Å² | 13.1 min | – | – |
| CC(C)NCC(O)c1ccc(NS(C)(=O)=O)cc1 (stereo not drawn) [Sotalol] | 170.22 Å² | 7.58 min | 166.72 Å² | 5.7 min | – | – |
| Nc1nc2c(ncn2COCCO)c(=O)[nH]1 [Acyclovir] | 146.78 Å² | 3.13 min | 148.26 Å² | 3.16 min | – | – |
| Oc1ccc(C2(c3ccc(O)cc3)CCCCC2)cc1 [Bisphenol Z] | 173.12 Å² | 15.3 min | – | – | – | – |
| CN1CCN2c3ncccc3Cc3ccccc3C2C1 (stereo not drawn) [Mirtazapine] | – | – | 160.18 Å² | 9.54 min | – | – |
| CC(CCOC(=O)c1ccccc1C(=O)OCCC(C)CC(C)(C)C)CC(C)(C)C (stereo not drawn) [Di-isononyl phthalate] | – | – | 224 Å² | 19.6 min | – | – |
| Cc1nc(N(C)C)nc(OC(=O)N(C)C)c1C [Pirimicarb] | – | – | 156.34 Å² | 10.5 min | – | – |
| N#Cc1cc(Br)c(O)c(Br)c1 [3,5-Dibromo-4-hydroxybenzonitrile] | 129.33 Å² | 8.01 min | – | – | – | – |
| CCCCCCCCCCCC[N+](C)(C)C [Dodecyltrimethylammonium] | – | – | – | – | 176.31 Å² | 15.2 min |
| CCNS(=O)(=O)C(F)(F)C(F)(F)C(F)(F)C(F)(F)C(F)(F)C(F)(F)C(F)(F)C(F)(F)F [2-N-Ethylperfluorooctanesulfonamide] | 178.3 Å² | 17.6 min | – | – | – | – |
| c1ccc(Nc2cccc3ccccc23)cc1 [N-Phenyl-1-naphthylamine] | – | – | 153.28 Å² | 16.1 min | – | – |
| C[N+]1(C)CCCCC1 [Mepiquat] | – | – | – | – | 118.75 Å² | 1.01 min |
| COC[P+](c1ccccc1)(c1ccccc1)c1ccccc1 [(Methoxymethyl)triphenylphosphonium] | – | – | – | – | 170.42 Å² | 10.6 min |
| CC(C)(c1ccc(OCC(O)CCl)cc1)c1ccc(OCC(O)CCl)cc1 (stereo not drawn) [Bisphenol A bis(3-chloro-2-hydroxypropyl) ether] | – | – | 194.74 Å² | 14.2 min | – | – |
| CCCc1nc2c(C)cc(-c3nc4ccccc4n3C)cc2n1Cc1ccc(-c2ccccc2C(=O)O)cc1 [Telmisartan] | 237.73 Å² | 14.6 min | 231.26 Å² | 14.2 min | – | – |

Reference: the supplement of paper PMC12613149
